These results are taken from paper PMC5852267, “Influence of quaternary cation compound on the size of the Escherichia coli small multidrug resistance protein, EmrE” (Biochemistry and Biophysics Reports, 2018).

T1 sequence (P23895 whole entry): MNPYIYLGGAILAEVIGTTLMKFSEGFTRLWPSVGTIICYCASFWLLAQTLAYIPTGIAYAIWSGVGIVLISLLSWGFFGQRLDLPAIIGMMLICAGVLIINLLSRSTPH

One test has as its target T1, EmrE (EmrE-Myc-His6; His6-myc-EmrE) (Escherichia coli, UniProt P23895).
T1 construct: plasmid pTZEmrEmH6; E. coli C43(DE3); dimer considered minimal functional unit
Put plainly: biochemical.
Conditions: not given
The test is classed as binding.
With `CN(C)c1ccc(C(=C2C=CC(=[N+](C)C)C=C2)c2ccc(N(C)C)cc2)cc1` [CV, Crystal Violet], the Kd (as a rule, the concentration at which binding is half-saturated) is 16 ± 5.7 µM.

In the case of `Nc1ccc2cc3ccc(N)cc3nc2c1` [PRO, Proflavine], the Kd is 14 ± 5 µM.

As to `CCN=c1cc2oc3cc(NCC)c(C)cc3c(-c3ccccc3C(=O)OCC)c-2cc1C` [RH, Rhodamine 6 G], the Kd was determined as 12 ± 1.4 µM.

Compound `CC[n+]1c(-c2ccccc2)c2cc(N)ccc2c2ccc(N)cc21` [EB, Ethidium bromide] had a Kd of 1 ± 0.3 µM.

In the case of `Cc1cc(N)c2ccccc2[n+]1CCCCCCCCCC[n+]1c(C)cc(N)c2ccccc21` [DC, Dequalinium chloride], the Kd was determined as 11 ± 2.2 µM.

Still in this test, the particulars now being: read-out: Kd.
Take `c1ccc([P+](c2ccccc2)(c2ccccc2)c2ccccc2)cc1` [TPP, Tetraphenylphosphonium chloride]: the Kd is 5 ± 3.7 µM.

In the case of `C[n+]1ccc(-c2cc[n+](C)cc2)cc1` [MV, Methyl Viologen], the Kd is 179 ± 19.9 µM.

Consider `CCCCCCCCCCCCCCCC[N+](C)(C)Cc1ccccc1` [CTC, Cetalkonium chloride (Banjela) (16 Chain)], for which the Kd is 407 ± 133 µM.
